Measurements: US12286435B2, “Compound having benzo seven-membered ring structure, preparation method therefor, and use thereof” (BIONNA (BEIJING) MEDICAL TECHNOLOGY CO., LTD., priority 2019, dated 2025)

Key:
[1] = molecular target: BRD4 BD1 protein (Homo sapiens (Human), UniProt O60885); test: Fluorescence polarization binding affinity (Ki) with BRD4 BD1 protein; settings: fluorescence polarization; Ki calculated from IC50
[2] = molecular target: BRD4 BD2 protein (Homo sapiens (Human), UniProt O60885); test: Fluorescence polarization binding affinity (Ki) with BRD4 BD2 protein; settings: fluorescence polarization; Ki calculated from IC50
[3] = tested on: multiple myeloma MM.1S cell line; test: Cell viability (CCK-8), multiple myeloma MM.1S; format: cell-based; settings: Homo sapiens, MM1.S, 96 h, MM.1S cells, 4 days, CCK-8, 50% inhibition of cell growth
Outline: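 Cells (about 3000-5000 per well) exposed to 3-fold serial dilutions of compound for 4 days at 37° C, 5% CO2. CCK-8 added 2-4 h, absorbance at 450 nm, viability normalised to untreated cells after medium-only blank subtraction; IC50 is concentration giving 50% growth inhibition.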

[4] = tested on: breast cancer MDA-MB-231 cell line; test: Cell viability (CCK-8), breast cancer MDA-MB-231; format: cell-based; settings: Homo sapiens, 96 h; MDA-MB-231 cells, 4 days, CCK-8, 50% inhibition of cell growth
Procedure: (§1) 3. Determination of cell viability of the compound
(§2) The sample to be tested was dissolved with 100% dimethyl sulfoxide to prepare a 20 mM stock solution of the compound, which was diluted with 100% dimethyl sulfoxide to the highest compound concentration required for the experiment (2.5 mM).
(§3) First, 145 uL of a complete cell culture medium was added to wells B1-G1 of a 96-well flat-bottomed tansparent cell culture plate, and 100 uL of the complete medium was added to wells B2-G12, respectively. Then, 5 uL of the 2.5 mM solution of the compound was added to wells B1-D1 and E1-G1 respectively, and then diluted gradiently by 3-folds to B12-D12 and E12-G12 in sequence. Finally, 50 uL of the solution of the cells to be tested was added to each well, with about 3000-5000 cells per well, and a total volume of 150 uL per well.
(§4) In the experiment, in addition to the tested compound, two other control groups were set up: 1) a control group adding the cells and the complete medium, but without adding the compound; 2) a control group adding the complete medium only, without adding the cells and the compound. The 96-well plate was placed in a 37° C. cell culture incubator containing 5% carbon dioxide for 4 days, added with 15 uL of a CCK-8 reagent per well, and then incubated at 37° C. for 2-4 hours. The 96-well plate was read on a TECAN microplate reader, and the absorbance value at 450 nm wavelength was taken.
(§5) The effect of different concentrations of the compound on cell viability was calculated by the following equation: [absorption value of the experimental group−absorption value of pure cell culture medium without the cells or the compound]/[absorption value of the control group with the tumor cells but no testing compound−absorption value of pure cell culture medium without the cell or the compound]×100%.
(§6) The above data were precessed by software, and the IC50 value was the concentration of the compound corresponding to the 50% inhibition rate of cell growth.
(§7) Based on the above test method of the compound on cell viability, a variety of […] cancer cell lines were tested, using multiple myeloma MM.1S, breast cancer MDA-MB-231 and leukemia MV4-11 cell lines as exemples. Using this test method, the IC50 values of partial compounds in the examples of the present invention measured in multiple myeloma MM.1S, breast cancer MDA-MB-231 cell lines and leukemia MV4-11 cell lines were shown in Table 2.

[5] = tested on: leukemia MV4-11 cell line; test: Cell viability (CCK-8), leukemia MV4-11; format: cell-based; settings: Homo sapiens, 96 h; MV4-11 cells, 4 days, CCK-8, 50% inhibition of cell growth
Procedure: as §1, §2, §3, §4, §5, §6, §7

Ki [1]	Ki [2]	IC50 [3]	IC50 [4]	IC50 [5]	SMILES
23.2 nM	5.73 nM	2.32 nM	1 nM	< 0.1 nM	CCn1cc(-c2ccc3c(c2)C(Nc2ccc(Cl)cc2)CCn2nnc(C)c2-3)cn1 (stereo not drawn) [RB05, N-(4-chlorophenyl)-9-(1-ethyl-1H-pyrazol-4-yl)-1-methyl-6,7-dihydro-5H-benzo[c][1,2,3]triazolo[1,5-a]azepin-7-amine]
33.7 nM	7.6 nM	2.34 nM	11 nM		Cc1nnn2c1-c1ccc(-c3cnn(C)c3)cc1C(Nc1ccc(Cl)cc1)CC2 (stereo not drawn) [RA180, N-(4-chlorophenyl)-1-methyl-9-(1-methyl-1H-pyrazol-4-yl)-6,7-dihydro-5H-benzo[c][1,2,3]triazolo[1,5-a]azepin-7-amine]
